Measurements from patent US20260347351A1, “INHIBITORS OF PDE11A4 AND METHODS OF USING SAME” (UNIVERSITY OF MARYLAND, BALTIMORE, priority 2022, published 2026).
Converted amounts (≈) assume the structure as drawn.

Tests used:
mPDE11A4 = mPDE11A4 (Mus musculus, UniProt P0C1Q2); experiment: Reversal of aging-like punctate accumulations of EmGFP-mPDE11A4 in HT-22 hippocampal cells; assay type: cell-based; conditions: HT-22 cells overexpressing EmGFP-mPDE11A4
Protocol: In vivo, expression of PDE11A4 increases in the hippocampus across the lifespan in humans and rodents, resulting in age-related punctate accumulations of PDE11A4 protein in “ghost axons.” These age-related PDE11A4 accumulations were mimicked by overexpressing mouse PDE11A4 in mouse HT-22 hippocampal cells. FIGS. 31A-31B is an image of HT-22 cells overexpressing EmGFP-mPDE11A4 treated with the vehicle DMSO (FIG. 30A) or 1 uM 25b (FIG. 30B).
See FIGS. 35A and 35B, which show images of HT-22 cells overexpressing EmGFP-mPDE11A4 treated with the vehicle DMSO (35A) or 1 uM 25b (35B).

PDE11A4 = molecular target: T1, PDE11A4 (Homo sapiens, UniProt Q9HCR9); experiment: In vitro PDE11A4 enzyme inhibition assay (Ba(OH)2 precipitation method); assay type: biochemical; conditions: for IC50: in vitro
T1 construct: purchased BPS Bioscience
T1 sequence (Q9HCR9 whole entry): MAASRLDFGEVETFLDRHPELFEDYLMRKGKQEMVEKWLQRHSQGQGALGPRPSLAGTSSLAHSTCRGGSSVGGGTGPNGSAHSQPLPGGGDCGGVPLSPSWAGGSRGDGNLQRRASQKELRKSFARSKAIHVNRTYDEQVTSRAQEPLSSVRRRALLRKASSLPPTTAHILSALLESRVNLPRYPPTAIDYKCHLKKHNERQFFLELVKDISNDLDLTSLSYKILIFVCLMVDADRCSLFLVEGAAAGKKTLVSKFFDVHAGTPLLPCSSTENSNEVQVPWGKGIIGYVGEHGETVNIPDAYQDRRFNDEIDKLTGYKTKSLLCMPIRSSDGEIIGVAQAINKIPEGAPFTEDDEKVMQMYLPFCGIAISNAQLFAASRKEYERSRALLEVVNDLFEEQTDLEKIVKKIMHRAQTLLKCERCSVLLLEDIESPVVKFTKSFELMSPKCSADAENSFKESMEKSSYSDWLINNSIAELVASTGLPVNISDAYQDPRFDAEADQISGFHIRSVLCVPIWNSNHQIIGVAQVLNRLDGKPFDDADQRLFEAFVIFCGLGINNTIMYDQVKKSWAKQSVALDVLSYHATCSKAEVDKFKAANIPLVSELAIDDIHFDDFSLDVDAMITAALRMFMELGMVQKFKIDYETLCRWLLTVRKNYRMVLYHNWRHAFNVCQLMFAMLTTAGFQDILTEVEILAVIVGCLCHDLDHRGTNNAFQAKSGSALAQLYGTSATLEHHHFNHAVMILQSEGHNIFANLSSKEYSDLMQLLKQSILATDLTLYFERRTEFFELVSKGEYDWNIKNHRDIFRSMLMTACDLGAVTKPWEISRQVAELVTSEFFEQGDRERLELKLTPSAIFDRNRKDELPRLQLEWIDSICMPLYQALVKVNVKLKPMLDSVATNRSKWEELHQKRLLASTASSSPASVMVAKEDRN
Protocol: In vitro enzyme assays are conducted via the Ba(OH)2 precipitation method of Wang et al. using commercially-available recombinant PDEs representing all 11 PDE families. Assays for PDE11A inhibition are carried out with both 200 nM cAMP and 100 nM cGMP. Substrate concentrations for the remaining PDEs are 100 nM cGMP (PDE1C), 1 μM cGMP (PDE2A), 30 nM cGMP (PDE3B), 120 nM cAMP (PDE4D), 500 nM cGMP (PDE5A), […] (PDE6C), 15 nM cAMP (PDE7A), 10 nM cAMP (PDE8A), 70 nM cGMP (PDE9A), and 30 nM cAMP (PDE10A).
These compounds were profiled further using additional commercially available analogs and by in vitro ADME characteristics. The synthesis of these analogs is illustrated in the schemes of FIGS. 24-26. […] In the rightmost column of FIG. 27B, percent (%) values refer to percent inhibition, and non-percent values refer to IC50 values.
In vitro enzyme assays were conducted via the Ba(OH)2 precipitation method of Wang et al. using recombinant human PDE3A, PDE4D3, PDE5A, PDE6C, PDE10A1, and PDE11A4 (BPS Bioscience)). Substrate concentrations used were 15 nM cGMP (PDE3A), 18 nM cAMP (PDE3A) 200 nM cAMP (PDE4D3), 500 nM cGMP (PDE5A), 1.7 μM cGMP (PDE6C), 30 nM cAMP (PDE10A), […] (PDE10A), 100 nM cGMP (PDE11A4) and 240 nM cAMP (PDE11A4). […] Inhibitor concentrations of 4, 13.7, 40, 123, 370, 1110, 3330 and 10,000 nM were used. The values reported are means of at least three independent experiments. Substrate concentrations were ~0.1×KM for each enzyme; thus, IC50 values approximate the Ki values.

[1] = Metabolic stability in human liver microsomes; assay type: in vitro ADME
Protocol: (§1) Metabolic stability: Samples at 37° C. in the presence of human or mouse liver microsomes and NADPH according to standard methods. Aliquots are removed at 5 time points, quenched and analyzed (LCMS/MS and MS/MS as needed) for remaining test compound, along with a positive control. Microsomal protein content is adjusted to give consistent results. Data are reported as half-life and clearance. Assay acceptance criteria is 20% for all standards and 25% for the LLOQ.

CYP2D6 = CYP2D6 (Homo sapiens, UniProt P10635); experiment: CYP2D6 inhibition (fluorescent substrate); assay type: in vitro ADME; conditions: Example 4 Table 1
Chain of CYP2D6 (P10635 whole entry): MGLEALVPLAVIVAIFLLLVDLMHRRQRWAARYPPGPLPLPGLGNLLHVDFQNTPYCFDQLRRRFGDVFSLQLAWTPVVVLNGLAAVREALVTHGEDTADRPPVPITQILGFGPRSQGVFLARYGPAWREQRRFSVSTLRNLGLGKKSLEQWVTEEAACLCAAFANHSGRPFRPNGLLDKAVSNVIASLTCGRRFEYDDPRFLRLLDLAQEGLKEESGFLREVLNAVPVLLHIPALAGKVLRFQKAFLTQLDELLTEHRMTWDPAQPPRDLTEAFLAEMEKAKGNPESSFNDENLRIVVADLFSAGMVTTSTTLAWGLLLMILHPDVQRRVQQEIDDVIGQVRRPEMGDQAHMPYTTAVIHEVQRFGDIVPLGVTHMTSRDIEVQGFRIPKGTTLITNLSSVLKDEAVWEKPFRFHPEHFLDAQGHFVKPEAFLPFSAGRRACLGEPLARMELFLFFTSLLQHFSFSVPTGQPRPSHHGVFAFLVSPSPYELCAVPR
Protocol: (§2) CYP inhibition: Compounds are assessed for their ability to inhibit the three major human cytochrome P450 enzymes, 3A4, 2D6 and 2C9. Expressed enzymes are used to minimize non-specific binding and membrane partitioning issues. The 3A4 assay uses testosterone as a substrate and is analyzed by LC/MS/MS on a Waters TQ instrument using positive or negative electrospray ionization. The 2D6 and 2C9 assays use fluorescent substrates and are analyzed on an Envision Plate Reader.

[2] = Metabolic stability in mouse liver microsomes; assay type: in vitro ADME
Protocol: as §1

[3] = Kinetic aqueous solubility, pH 7.4; assay type: physicochemical; conditions: aqueous buffer, PBS, Example 4 Table 1
Protocol: The mixture is agitated at 25° C. for 1 hour, filtered and evaluated by UV and/or LCMSMS analysis. Data are reported as mg/mL and μM concentration.

MDCK cell monolayers = experiment: MDCK / MDCK-MDR1 permeability and efflux; assay type: in vitro ADME; conditions: Example 4 Table 1
Protocol: MDCK permeability: MDCK cell monolayers (Absorption Systems, Malvern, PA) are grown to confluence on collagen-coated microporous membranes in 12-well assay plates. Assay buffer consists of Hanks' balanced salt solution containing 10 mM HEPES and 15 mM glucose at pH—7.4. The buffer in the receiver chamber also contains 1% bovine serum albumin. Compounds are tested at a final concentration of 5 μM in the assay buffer. Cell monolayers are dosed on the apical side (A-B) or basolateral side (B-A) and incubated at 37° C. with 5% CO2 in a humidified incubator. Samples are taken from the donor and receiver chambers at 120 minutes. Each determination is performed in duplicate. The flux of Lucifer yellow is also measured post-experimentally for each monolayer to ensure no damage is inflicted to the monolayer during flux period. Samples are assayed on a Waters TQ LC/MS/MS using positive or negative electrospray ionization.

CYP3A4 = CYP3A4 (Homo sapiens, UniProt P08684); experiment: CYP3A4 inhibition (testosterone substrate); assay type: in vitro ADME; conditions: Example 4 Table 1
Chain of CYP3A4 (P08684 whole entry): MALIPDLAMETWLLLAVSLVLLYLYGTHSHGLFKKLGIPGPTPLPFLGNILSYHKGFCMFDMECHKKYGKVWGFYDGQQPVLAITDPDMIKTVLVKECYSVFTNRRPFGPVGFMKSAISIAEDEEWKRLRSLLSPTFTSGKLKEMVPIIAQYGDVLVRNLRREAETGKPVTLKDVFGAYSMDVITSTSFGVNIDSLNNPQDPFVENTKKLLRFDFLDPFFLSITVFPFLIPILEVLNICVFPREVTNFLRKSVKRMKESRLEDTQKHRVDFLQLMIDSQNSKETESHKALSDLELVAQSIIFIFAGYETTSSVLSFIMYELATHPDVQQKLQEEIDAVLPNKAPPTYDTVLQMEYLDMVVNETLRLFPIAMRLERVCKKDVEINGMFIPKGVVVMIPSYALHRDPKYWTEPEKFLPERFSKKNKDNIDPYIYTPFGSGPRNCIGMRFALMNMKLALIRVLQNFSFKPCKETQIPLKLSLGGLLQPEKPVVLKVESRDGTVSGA
Protocol: as §2

CYP2C9 = CYP2C9 (Homo sapiens, UniProt P11712); experiment: CYP2C9 inhibition (fluorescent substrate); assay type: in vitro ADME; conditions: Example 4 Table 1
Chain of CYP2C9 (P11712 whole entry): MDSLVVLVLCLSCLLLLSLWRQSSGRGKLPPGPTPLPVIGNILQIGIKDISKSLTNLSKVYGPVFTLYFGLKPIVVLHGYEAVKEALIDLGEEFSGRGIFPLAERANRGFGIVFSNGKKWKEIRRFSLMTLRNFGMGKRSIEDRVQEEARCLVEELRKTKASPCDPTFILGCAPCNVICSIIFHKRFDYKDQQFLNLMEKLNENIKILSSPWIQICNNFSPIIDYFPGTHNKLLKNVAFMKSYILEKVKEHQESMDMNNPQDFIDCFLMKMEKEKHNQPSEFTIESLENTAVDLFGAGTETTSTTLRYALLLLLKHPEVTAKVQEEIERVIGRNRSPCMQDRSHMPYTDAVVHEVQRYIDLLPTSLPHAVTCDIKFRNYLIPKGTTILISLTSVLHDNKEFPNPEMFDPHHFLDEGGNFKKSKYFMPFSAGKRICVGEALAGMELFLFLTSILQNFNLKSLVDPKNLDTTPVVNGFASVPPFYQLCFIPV
Protocol: as §2

Chain of mPDE11A4 (P0C1Q2 whole entry): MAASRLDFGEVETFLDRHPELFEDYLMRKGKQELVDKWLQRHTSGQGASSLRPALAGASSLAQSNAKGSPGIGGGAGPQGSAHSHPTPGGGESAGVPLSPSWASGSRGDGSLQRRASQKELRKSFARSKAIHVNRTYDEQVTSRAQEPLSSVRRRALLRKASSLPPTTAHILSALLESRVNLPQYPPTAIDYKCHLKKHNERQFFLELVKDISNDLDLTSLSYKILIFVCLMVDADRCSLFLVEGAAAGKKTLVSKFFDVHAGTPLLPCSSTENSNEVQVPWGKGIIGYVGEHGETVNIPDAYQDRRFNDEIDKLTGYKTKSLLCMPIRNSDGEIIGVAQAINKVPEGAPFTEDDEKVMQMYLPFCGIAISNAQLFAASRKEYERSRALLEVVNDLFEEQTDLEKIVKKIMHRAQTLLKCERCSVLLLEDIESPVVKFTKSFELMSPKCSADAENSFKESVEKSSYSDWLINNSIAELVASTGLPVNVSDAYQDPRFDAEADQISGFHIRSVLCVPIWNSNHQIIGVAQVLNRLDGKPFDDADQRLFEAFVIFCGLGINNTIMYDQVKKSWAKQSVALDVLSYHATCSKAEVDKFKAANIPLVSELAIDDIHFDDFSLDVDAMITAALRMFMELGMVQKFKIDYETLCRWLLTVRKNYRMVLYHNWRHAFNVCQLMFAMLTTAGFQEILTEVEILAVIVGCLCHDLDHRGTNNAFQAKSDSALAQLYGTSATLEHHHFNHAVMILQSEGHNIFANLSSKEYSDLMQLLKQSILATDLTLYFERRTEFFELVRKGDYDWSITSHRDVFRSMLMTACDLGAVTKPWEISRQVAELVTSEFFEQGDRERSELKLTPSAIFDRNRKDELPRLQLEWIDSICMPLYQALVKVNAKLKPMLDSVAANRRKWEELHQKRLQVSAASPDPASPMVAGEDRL

CCCSc1nc2c(c(=O)n1-c1ccccc1)SCC2 [BC11-38]
reversal of aging-like accumulations of mPDE11A4 (mPDE11A4): able to reverse these aging-like accumulations of mPDE11A4

CCn1nccc1-c1cc(-c2ncc(C)s2)c2cnn(-c3ccccc3)c2n1 [Compound 1001]
inhibition at 0.5 µM (PDE11A4; @500 nM): 62%

CCn1nccc1-c1cc(-c2ncc(C)o2)c2cnn(-c3ccccc3)c2n1 [Compound 1003]
IC50 (PDE11A4): 140 nM

CCn1nccc1-c1cc(-c2nnc(C)s2)c2cnn(-c3ccccc3)c2n1 [Compound 1005]
IC50 (PDE11A4): 170 nM

CCn1nccc1-c1cc(-c2nnc(C)o2)c2cnn(-c3ccccc3)c2n1 [Compound 1007]
IC50 (PDE11A4): 70 nM

CCN(CC)C(=O)c1cc(-c2cccs2)nc2c1c(C)nn2-c1ccccc1 [Compound 3001]
microsomal CLint ([1]; Example 4 Table 1, read-out: Human Liver Microsome Clint): > 690 µL/min/mg
half-life ([1]; Example 4 Table 1, read-out: Human Liver Microsome Stability t½): < 2 min
IC50 (CYP2D6): > 10000 nM
microsomal CLint ([2]; Example 4 Table 1, read-out: Mouse Liver Microsome Clint): > 690 µL/min/mg
half-life ([2]; Example 4 Table 1, read-out: Mouse Liver Microsome Stability t½): < 2 min
solubility [3]: 54 µM (≈ 21.1 µg/mL)
MDCK1 A:B (MDCK cell monolayers): 0.78
IC50 (CYP3A4): 3000 nM
IC50 (CYP2C9): 4900 nM

CN1CC(=O)N2[C@H](c3ccc4c(c3)OCO4)c3[nH]c4ccccc4c3C[C@@H]2C1=O [Tadalafil, tadalafil]
reversal of aging-like accumulations of mPDE11A4 (mPDE11A4): able to reverse these aging-like accumulations of mPDE11A4
